In patent US12668599B2, “Heterobifunctional compounds and methods of treating disease” (Halda Therapeutics OpCo, Inc., priority 2023, dated 2026):

Key:
[1] = system: T-Rex 293 cell line SC3 cells having increased expression of androgen receptor protein due to exposure to doxycycline; assay: Cellular growth inhibition, T-Rex 293 SC3 cells with doxycycline-induced androgen receptor (CellTiter-Glo 2.0, 72 hours); type: cell-based; conditions: for GI50: T-Rex 293 SC3 cells with 10 ng/ml doxycycline (increased androgen receptor expression), 72 hours, CellTiter-Glo 2.0
[2] = system: T-Rex 293 cell line SC3 cells lacking increased expression of androgen receptor protein; assay: Cellular growth inhibition, T-Rex 293 SC3 cells without doxycycline (CellTiter-Glo 2.0, 72 hours); type: cell-based; conditions: T-Rex 293 SC3 cells not exposed to doxycycline (no increased androgen receptor expression)
VCaP cells = assay: Cellular growth inhibition assay for VCaP cells (CellTiter-Glo 2.0, 72 hours); type: cell-based, human; conditions: for GI50: CellTiter-Glo 2.0

Row | GI50 (VCaP cells; 72 hours) [nM] | Ratio of GI50's (VCaP cells; GI50 of the top compound in the pair divided by GI50 of the lower compound) | GI50 (VCaP cells; Homo sapiens, VCaP, 72 h) [nM] | SMILES | Ratio of GI50's ([1]; GI50 of the top compound in the pair divided by GI50 of the lower compound, T-Rex 293 SC3 cells with doxycycline-induced androgen receptor) | GI50 [1] [nM] | GI50 [2] [nM] | GI50 ([2]; 72 h) [nM]
1 | < 500 | 1 |  | COc1cc(O[C@H]2CC[C@H](NC(=O)c3ccc(N4CCC5(CCC(c6ccc(C7=N[C@@H](Cc8ncco8)c8nnc(C)n8-c8sc(C)c(C)c87)cc6)CC5)C4)nn3)CC2)ccc1C#N (some centres unmarked) [Compound I-101] | 1 | < 500 | < 500 | 
2 | < 500 |  |  | COc1cc(O[C@H]2CC[C@H](NC(=O)c3ccc(N4CCC5(CCN(c6ccc(C7=NC(Cc8ncco8)c8nnc(C)n8-c8sc(C)c(C)c87)cc6C(F)(F)F)CC5)C4)nn3)CC2)ccc1C#N (some centres unmarked) [Compound I-129] |  | < 500 | < 500 | 
3 |  |  | < 500 | CCc1csc2c1C(c1ccc(OC3CC4(CCN(c5ncc(C(=O)N[C@H]6C(C)(C)[C@H](Oc7ccc(C#N)c(OC)c7)C6(C)C)cn5)CC4)C3)cc1)=N[C@@H](Cc1ncco1)c1nnc(C)n1-2 [III-1, N-[(1r,3r)-3-(4-cyano-3-methoxy-phenoxy)-2,2,4,4-tetramethyl-cyclobutyl]-2-[2-[4-[(9S)-5-ethyl-13-methyl-9-(oxazol-2-ylmethyl)-3-thia-1,8,11,12-tetrazatricyclo[8.3.0.0^2,6]trideca-2 (6),4,7,10,12-pentaen-7-yl]phenoxy]-7-azaspiro[3.5]nonan-7-yl]pyrimidine-5-carboxamide] |  | < 500 |  | 500 to 1500
4 |  |  | < 500 | CC[C@@H]1N=C(c2ccc(C#CC3CC4(C3)CN(c3ccc(C(=O)N[C@H]5CC[C@H](Oc6ccc(C#N)c(OC)c6)CC5)nn3)C4)cc2)c2c(sc(C)c2C)-n2c(C)nnc21 [Compound I-31, N-[4-(4-cyano-3-methoxy-phenoxy)cyclohexyl]-6-[6-[2-[4-[(9S)-9-ethyl-4,5,13-trimethyl-3-thia-1,8,11,12-tetrazatricyclo[8.3.0.0^2,6]trideca-2 (6),4,7,10,12-pentaen-7-yl]phenyl]ethynyl]-2-azaspiro[3.3]heptan-2-yl]pyridazine-3-carboxamide] |  | < 500 |  | < 500
5 |  |  | < 500 | COc1cc(O[C@H]2C(C)(C)[C@@H](NC(=O)c3cnc(N4CCC5(CC4)CC(Oc4ccc(C6=NC(Cc7ncco7)c7nnc(C)n7-c7sc(C)c(C)c76)cc4)C5)nc3)C2(C)C)ccc1C#N (some centres unmarked) [III-3, N-[(1r,3s)-3-(4-cyano-3-methoxy-phenoxy)-2,2,4,4-tetramethyl-cyclobutyl]-2-[2-[4-[4,5,13-trimethyl-9-(oxazol-2-ylmethyl)-3-thia-1,8,11,12-tetrazatricyclo[8.3.0.0^2,6]trideca-2 (6),4,7,10,12-pentaen-7-yl]phenoxy]-7-azaspiro[3.5]nonan-7-yl]pyrimidine-5-carboxamide] |  | < 500 |  | < 500
6 |  |  | < 500 | COc1cc(O[C@H]2CC[C@H](NC(=O)c3ccc(N4CCC5(CC4)CC(Oc4ccc(C6=N[C@@H](Cc7ncco7)c7nnc(C)n7-c7sc(C)c(C)c76)cc4F)C5)nn3)CC2)ccc1C#N [Compound I-133] |  | < 500 |  | < 500
7 | < 500 |  |  | COc1cc(O[C@H]2CC[C@H](NC(=O)c3ccc(N4CCC5(CCC(c6ccc(C7=N[C@@H](C)c8nnc(C)n8-c8sc(C)c(C)c87)c(OC)c6)CC5)C4)nn3)CC2)ccc1C#N (some centres unmarked) [Compound I-69] |  | < 500 | < 500 | 
8 |  |  | < 500 | COc1cc(O[C@H]2CC[C@H](NC(=O)c3ccc(N4CCC5(CC4)CC(Cc4ccc(C6=N[C@@H](Cc7ncco7)c7nnc(C)n7-c7sc(C)c(C)c76)c(F)c4)C5)nn3)CC2)ccc1C#N [Compound I-125, N-[4-(4-cyano-3-methoxy-phenoxy)cyclohexyl]-6-[2-[[3-fluoro-4-[(9S)-4,5,13-trimethyl-9-(oxazol-2-ylmethyl)-3-thia-1,8,11,12-tetrazatricyclo[8.3.0.0^2,6]trideca-2 (6),4,7,10,12-pentaen-7-yl]phenyl]methyl]-7-azaspiro[3.5]nonan-7-yl]pyridazine-3-carboxamide] |  | < 500 |  | < 500
9 |  |  | < 500 | COc1cc(O[C@H]2CC[C@H](NC(=O)c3ccc(N4C[C@H]5CN(c6ccc(C7=N[C@@H](C)c8nnc(C)n8-c8sc(C)c(C)c87)cc6)C[C@H]5C4)nn3)CC2)ccc1C#N [Compound I-47] |  | < 500 |  | < 500
10 |  |  | < 500 | COc1cc(O[C@H]2CC[C@H](NC(=O)c3ccc(N4CCC5(CCN(c6ccc(C7=N[C@@H](C)c8nnc(C)n8-c8sc(C)c(C)c87)c(F)c6)C5)C4)nn3)CC2)ccc1C#N (some centres unmarked) [Compound I-92] |  | < 500 |  | < 500
11 |  |  | < 500 | COc1cc(O[C@H]2CC[C@H](NC(=O)c3ccc(N4CC(C)(C)C5(CCN(c6ccc(C7=N[C@@H](C)c8nnc(C)n8-c8sc(C)c(C)c87)cc6)CC5)C4)nn3)CC2)ccc1C#N [Compound I-120] |  | < 500 |  | < 500
12 |  |  | < 500 | COc1cc(O[C@H]2CC[C@H](NC(=O)c3ccc(N4CCC5(CCN(c6ccc(C7=N[C@@H](C)c8nnc(C)n8-c8sc(C)c(C)c87)c(Cl)c6)CC5)C4)nn3)CC2)ccc1C#N [Compound I-74] |  | < 500 |  | > 3000
13 | < 500 |  |  | COCC[C@@H]1N=C(c2ccc(C#CC3CC4(C3)CN(c3ccc(C(=O)N[C@H]5CC[C@H](Oc6ccc(C#N)c(OC(F)(F)F)c6)CC5)nn3)C4)cc2)c2c(sc(C)c2C)-n2c(C)nnc21 [Compound I-33] |  | < 500 | < 500 | 
14 |  |  | < 500 | COc1cc(O[C@H]2CC[C@H](NC(=O)c3ccc(N4C[C@]5(C)CN(c6ccc(C7=N[C@@H](Cc8ncco8)c8nnc(C)n8-c8sc(C)c(C)c87)cc6)C[C@]5(C)C4)nn3)CC2)ccc1C#N [Compound I-118] |  | < 500 |  | < 500
15 | < 500 |  |  | COc1cc(O[C@H]2CC[C@H](NC(=O)c3ccc(N4CCC5(CCC(c6ccc(C7=N[C@@H](C)c8nnc(C)n8-c8sc(C)c(C)c87)cc6)C5)C4)nn3)CC2)ccc1C#N (some centres unmarked) [Compound I-96] |  | < 500 | < 500 | 
16 |  |  | < 500 | COc1cc(O[C@H]2CC[C@H](NC(=O)c3ccc(N4CCC5(CCCN(c6ccc(C7=N[C@@H](C)c8nnc(C)n8-c8sc(C)c(C)c87)cc6)C5)CC4)nn3)CC2)ccc1C#N [Compound I-81, N-((1r,4r)-4-(4-cyano-3-methoxyphenoxy)cyclohexyl)-6-(2-(4-((S)-2,3,6,9-tetramethyl-6H-thieno[3,2-f][1,2,4]triazolo[4,3-a][1,4]diazepin-4-yl)phenyl)-2,9-diazaspiro[5.5]undecan-9-yl) pyridazine-3-carboxamide] |  | < 500 |  | < 500
